row,SMILES,melting point
1,COC(=O)Nc1ccc(OCc2nc3ccc(OC)cc3s2)cc1C,123 to 125 °C
2,Cc1cc2c(c(C)c1NC(=O)CC(C)(C)C)C(=O)C(C)(C)O2,181 to 182 °C
3,CC1(CBr)SC2C(NC(=O)COc3ccccc3)C(=O)N2C1C(=O)O (stereo unspecified),164 to 166 °C
4,CN(Cc1ccc2c(Br)c(O)ccc2c1)C(=O)c1cn(C)c2ccccc12,189 to 190 °C
5,CCOC(=O)C1N=CSC12CCN(Cc1ccccc1)CC2 (stereo unspecified),67 to 68 °C
6,O=Cc1cccnc1Br,74 to 76 °C
7,Cc1sc(-c2ccc(C(F)(F)F)cc2)nc1CCOc1ccc(CCC(=O)O)cc1,142 to 147 °C
8,Nc1cccnc1Nc1ccccc1C(=O)c1ccc(F)cc1,122 °C
9,CN1C(=O)[C@H](NC(=O)CCNc2ccccc2)N=C(c2ccccc2)c2ccccc21,218 to 221 °C
10,CC(CN1CCN(C(c2ccc(F)cc2)c2ccc(F)cc2)CC1)Cn1c(=O)[nH]c2ccccc21 (stereo unspecified),176 °C
11,O=c1c2c(cnn1CC=Cc1ccccc1)C(Cc1ccccc1)NCCS2 (stereo unspecified),101 to 102 °C
12,Cc1ccc(C=C(C#N)S(=O)(=O)c2ccccc2)cc1,145 to 147 °C
13,CCC1(CC(=O)O)OCCc2c1[nH]c1ccccc21 (stereo unspecified),135 to 136 °C
14,c1coc(-c2ccc(-c3cn([C@H]4CN5CCC4CC5)nn3)s2)c1,180 °C
15,O=c1c2cc(F)c(N3CCCC3)cc2n(-c2ccccc2F)c(=O)n1O,235 to 237 °C
16,COc1nc(OC)c(C(C)C)c(C(C#N)c2cc(C)cc(Cl)c2)n1 (stereo unspecified),105 to 106 °C
17,O=S1(=O)OC[C@H]2CCCN21,45 to 46 °C
18,Cc1sc2c(c1C)C(c1ccc(Cl)cc1)=N[C@@H](CC(=O)Nc1ccc(N)cc1)c1nnc(C)n1-2,169 to 173 °C
19,Nc1sc2c(c1C(=O)c1ccc(Cl)cc1)CCS2,146 to 150 °C
20,CC(=O)Nc1cc(-n2c(-c3ccccc3)cc3c2CCCC3)cc(C(=O)O)c1O,232 to 234 °C
21,CCOCc1nc2nccnc2c(=O)[nH]1,168 to 169 °C

row,SMILES,melting point
1,Cc1ccc(NS(=O)(=O)c2ccc(N3CCNC3=O)cc2)cc1C,206 to 208 °C
2,CC1CN(C)CC(C)(c2cccc(O)c2)O1 (stereo unspecified),142 to 143 °C
3,O=C(c1ccccc1)c1ccc(OCCOCCO)cc1,31 to 32 °C
4,COC1(c2csc(S(=O)(=O)c3ccc(/C(C)=N/O)cc3)c2)CCOCC1,141 to 142 °C
5,CSc1ncc2cc(C)c(=O)[nH]c2n1,243 to 245 °C
6,COC(=O)C1=C(C)N=C(C)C(C(=O)OC)C(c2ccccc2)C1 (stereo unspecified),135 to 137 °C
7,CCOc1ccc2c(c1)C(C)(c1cc(N)ccc1Cl)C(=O)N2 (stereo unspecified),166 °C
8,COC(=O)C(=CC1C(C(=O)O)C1(C)C)OC (stereo unspecified),78 °C
9,CONC(=O)c1ccc(CC(C)(C)C=O)cc1,126 to 128 °C
10,CNC(=N[N+](=O)[O-])N(Cc1cnc(Cl)s1)C(=O)N(C)C,140 °C
11,CCOc1cc2c(cc1OCC)C(c1ccccc1)=NCC(=O)N2,233 to 236 °C
12,Cc1c(Cl)c2c(c3oc4ccccc4c(=O)c13)CC(C(=O)O)O2 (stereo unspecified),284 to 287 °C
13,Cc1ccc2[nH]c(C)c(-c3ccc(F)cc3)c2c1,124 to 128 °C
14,CCOC(=O)C(=CNC1CC1)C(=O)c1c(F)c(C)c(F)c(F)c1[N+](=O)[O-],115 to 116 °C
15,FC(F)(F)c1cc(Cl)c(-n2ncc(-c3ncc[nH]3)n2)c(Cl)c1,282 to 283 °C
16,O=CNNc1ccc(NC(=S)N2CCCC2)cc1,199 to 201 °C
17,COc1cc2nc(N3CCN(C(=O)C=Cc4ccc(C(C)C)cc4)CC3)nc(N)c2cc1OC,237 to 238 °C
18,Cc1cc2c(cc1C(=O)O)CCC(CCN1CCCC1)=C2,258 to 259 °C
19,COc1cc2c(cc1[N+](=O)[O-])NC(=O)CN(C(=O)OCc1ccccc1)C2,191 °C
20,CCOC(=O)N1CC[C@@H](N)[C@H](O)C1 (relative stereo),76.9 °C
21,CC(=O)c1ccc(CC(C)NCC(O)c2ccccc2)cc1 (stereo unspecified),120 to 135 °C

# More lines, now with the values ahead:
row,melting point,SMILES
1,198 to 200 °C,O=C(Nc1cccc(C(F)(F)F)c1)N1CCN(Cc2ccc(Nc3ccnc4cc(C(F)(F)F)ccc34)cc2)CC1
2,138 to 139 °C,O=C(Nc1ccc(C2=CN(C(=O)OCc3ccccc3)CCC2)c(F)c1)OCc1ccccc1
3,203 to 205 °C,CC(C)(C)OC(=O)N1CCO[C@@H]2Cc3c(O)cccc3C[C@H]21
4,185 to 187 °C,C#CCN(Cc1cc2c(=O)[nH]c(CO)nc2cc1Cl)c1ccc(C(=O)OC(C)(C)C)cc1
5,135 to 136 °C,COC(=O)c1ccc(C2C(=O)Oc3c2cc(C(C)(C)C)cc3C(C)(C)C)cc1 (stereo unspecified)
6,115 to 118 °C,O=C1c2ccc(Sc3ccc(Cl)cc3)cc2C(=O)N1Cc1cccnc1
7,171 to 174 °C,CC(=O)NCC1CN(c2ccc(N3CCN(c4ccc([N+](=O)[O-])s4)CC3)c(F)c2)C(=O)O1 (stereo unspecified)
8,145 to 150 °C,CCn1c(=NC(C)=O)c(-c2cc(OC)cc(OC)c2)cc2cnc(SC)nc21
9,128 to 129 °C,O=C1c2ccccc2C(=O)N1CC(=CBr)c1ccccc1
10,65 to 68 °C,CCCCCCCCCCCCNS(=O)(=O)c1cccc(C(F)(F)F)c1
11,131 to 133 °C,CN(Cc1ccc2[nH]cc(CCN3C(=O)c4ccccc4C3=O)c2c1)S(=O)(=O)C(F)(F)F
12,136 to 138 °C,CCOC(=O)c1c(OCc2ccc(-c3ccccc3-c3nnn(C(c4ccccc4)(c4ccccc4)c4ccccc4)n3)cc2)cc(C)nc1C
13,99 to 100 °C,Cc1ccc(C2(C#N)C3CC4CC(C3)CC2C4)cc1 (stereo unspecified)
14,126 to 128 °C,CC1NCC(CO)CC1OC(=O)c1ccncc1 (stereo unspecified)
15,162 to 163 °C,COC(=O)c1cc(O)n(C(C)C)n1
16,93 °C,NOCCc1cn(C(c2ccccc2)(c2ccccc2)c2ccccc2)cn1
17,243 to 245 °C,O=C1NC(=O)C(c2ccc(N3C(=O)c4ccccc4C3=O)cc2)S1 (stereo unspecified)
18,136 to 137 °C,CCCCCCc1cc(CO)c(-c2ccccc2)c(-c2ccccc2)c1CO
19,89 to 90 °C,CN(C)C=CC(=O)c1ccsc1
20,224 to 228 °C,O=C(c1ccccc1)c1ccc(C(=O)c2ccc(C(=O)c3ccccc3)cc2)cc1

row,melting point,SMILES
1,188 to 190 °C,CCCSC(Cn1ccnc1)(SCCC)c1ccc2ccccc2c1
2,149 to 154 °C,O=C(O)[C@H](CCc1ccccc1)NS(=O)(=O)c1ccc2c(c1)Sc1ccccc1O2
3,88 to 91 °C,O=S(=O)(c1ccncc1)C1CCNCC1
4,260 °C,CC(C)C1(C)N=C(c2nc3scc([N+](=O)[O-])c3cc2C(=O)O)NC1=O (stereo unspecified)
5,351 to 353 °C,Cc1nc2c(C(F)(F)F)cccc2c(=O)n1C1CCC(=O)NC1=O (stereo unspecified)
6,130 to 131 °C,Cc1oc(-c2ccccc2)nc1COc1ccc(COc2ccc(OCc3ccccc3)cc2CC#N)cc1
7,157 °C,CC(=O)N1c2ccc(S(=O)(=O)C[N+](=O)[O-])c(C)c2CC1C (stereo unspecified)
8,110 to 120 °C,COc1ccc(C2(CCN3CCC(O)(c4nc5ccccc5n4Cc4ccc(F)cc4)CC3)CCN(C(=O)c3cc(OC)c(OC)c(OC)c3)C2)cc1OC (stereo unspecified)
9,76 to 77 °C,CC(Oc1cc(Cl)ccc1Br)C(=O)N(C)C (stereo unspecified)
10,114 to 115 °C,CS(=O)(=O)OCCNc1ccc([N+](=O)[O-])cc1Cl
11,197 °C,Cn1cncc1C(O)(c1ccc(I)cc1)c1ccc2c(c1)c(-c1cccc(Cl)c1)cc(=O)n2C (stereo unspecified)
12,82 to 83 °C,O=C(O)CCCCCCCc1nc(-c2ccccc2)c(-c2ccccc2)o1
13,165 to 166 °C,CC(C)CCOc1cccc2oc(-c3nnn[nH]3)cc(=O)c12
14,115 to 116 °C,CCCn1nc(C#N)cc1CC(C)(C)NC(=O)OC(C)(C)C
15,168 to 170 °C,CN1CCN(C2NC(=O)c3ccccc32)CC1 (stereo unspecified)
16,149 to 159 °C,CCOC(=O)c1c(NCc2ccccc2)n[nH]c1C
17,299 to 300 °C,O=C(O)c1cnc(O)cc1Cl
18,159 to 161 °C,Cc1[nH]c2ccc(CCN3CCCCC3)cc2c1C(=O)OCc1ccccc1
19,165 °C,CN(CCc1ccc2c(c1)OCO2)C(C)(C)CCC(C(N)=O)(c1ccccc1)c1ccccc1
20,128 °C,O=C(c1ccc(F)cc1F)N1CCc2cc(S(=O)(=O)N3CC(c4ccccc4)NC3=O)ccc21 (stereo unspecified)

row,melting point,SMILES
1,215 to 216 °C,CCCOc1ccc(CCC(=O)O)cc1-c1nc2c(C)cccc2c(=O)[nH]1
2,192 to 194 °C,CC(=O)Nc1ccc(OCCCCBr)c([N+](=O)[O-])c1
3,105 to 108 °C,CCC(C(C)=CC(CNC(=O)c1cccnc1)=NO)[N+](=O)[O-] (stereo unspecified)
4,82 to 83 °C,COC(=O)c1c(CC#N)ncn1C1CCCCO1 (stereo unspecified)
5,68 to 69 °C,O=C1c2ccccc2SCN1CCO[N+](=O)[O-]
6,126 to 128 °C,COc1ccccc1N1CCN(CCCOc2cc(C(=O)c3cc4ccccc4[nH]3)ccc2OCc2ccc(C)cc2)CC1
7,161 °C,CC(=O)CC(=O)Nc1cccc(OC(=O)NC(C)C)c1
8,89 to 90 °C,COc1ccccc1[Si](C)(C)COc1cc(C(C)(C)C)c(O)c(C(C)(C)C)c1
9,204 °C,CCOC(=O)c1nc2scc(CNC(=O)c3ccccc3)c2c(=O)[nH]1
10,227 to 229 °C,Cc1cccc(C)c1NC(=O)NC1(c2ccccc2)CCCC1
11,204 °C,Cc1ccc(Oc2ccc(NC(=O)Nc3cc(C(C)(C)C)n[nH]3)cc2)cc1
12,76 to 78 °C,CC(C)Cn1c(=O)n(C)c(=O)c2cc(Cc3cccc(F)c3)sc21
13,249 to 250 °C,CC(C)CCN1C(=O)C(NC(=O)Nc2ccccc2)C(=O)Nc2ccccc21 (stereo unspecified)
14,222 to 225 °C,COC(=O)CCc1cc(=O)n2nc(C)nc2[nH]1
15,115 to 116 °C,Cc1oc(-c2ccccc2)nc1CCOc1cc(CO)on1
16,122 to 123 °C,O=C1Nc2c(ccc3c2CCCC3)SC1CCCBr (stereo unspecified)
17,245 to 246 °C,Cc1ccc2cc(C(=O)NCCSC(c3ccccc3)(c3ccccc3)c3ccccc3)[nH]c2c1NS(=O)(=O)c1cccs1
18,70 to 72 °C,CC1=C2C=c3c(cnn3CC(C)N=[N+]=[N-])=C2CC=C1 (racemic)
19,125 to 127 °C,CCOC(=O)c1ccc(NC(=O)c2cccnc2)cc1

# — a melting point compilation (Tetko et al.; mined from patent text by program, amines drawn as free bases though some values may be those of a salt)
